In patent US12226386B2, “Compositions and methods for treating biofilms” (The Regents of the University of California, priority 2018, dated 2025):

How the values were obtained:
C. albicans biofilms = experiment: in vitro sustained inhibition biofilm assay, fungal; assay type: cell-based, Candida albicans; details: 1% amino acid, p<0.001
Procedure: Two types of biofilm assays were performed: a sustained inhibition assay and a disruption assay.
For fungal biofilm assays, all solutions were prepared in RPMI 1640 medium. All bacterial biofilm solutions were prepared in Tryptic Soy Broth (TSB), supplemented with 1% glucose (henceforth referred to as TSB-G). All subsequent procedures were performed in a manner that maintained sterility. A solution of each amino acid to be tested was prepared in weight to volume concentrations ranging from 0.1-5.0%. Amino acids were also tested in combinations. Compound solutions were homogenized with gentle agitation in the dark (4° C., 24 hours) before use.
Fungal strains were streaked on Yeast Peptone Dextrose (YPD) agar plates and incubated at 30° C. for 48 hours. A single colony from each strain to be tested was inoculated into YPD broth and grown for 12 hours, at 30° C., shaking at 225 rpm. For the fungal biofilm inhibition assay, 1 μl of saturated overnight cell culture was added to either 80 μL of RPMI-1640 or RPMI-1640 supplemented with the amino acid compound solution to be tested, in a 384-well plate. […] Media was carefully aspirated and the biofilm was measured by optical density at 600 nm. Twelve replicates were performed for each tested condition and the reported values are normalized to the control (RPMI-1640 media only). For the fungal biofilm disruption assays, 80 μL of RPMI-1640 was added to the plate, along with 1 μL of overnight cell culture. […] Loosely bound cells were washed once with PBS and 80 μL of RPMI-1640 was added to the plate. […] Media was carefully aspirated from the mature biofilm and 80 μL of RPMI-1640, or RPMI-1640 supplemented with the amino acid compound solution to be tested, was gently added to the plate. […] Media was carefully aspirated and the biofilm was measured by optical density at 600 nm. Twelve replicates were performed for each tested condition and the reported values are normalized to the control (RPMI-1640 media only).
The plate was further incubated for 24 hours at 37° C. with shaking (350 rpm). Media was carefully aspirated and the biofilm was measured by optical density at 600 nm.

[1] = system: fungal biofilms (C. albicans); experiment: biofilm assays (sustained inhibition and/or disruption), fungal; assay type: cell-based, Candida albicans; details: Tables 4 and 5
Procedure: Other amino acids in the blood of animals could combat bacterial and fungal biofilm and therefore may be useful in treating these bacterial and fungal infections that would lie on the external surfaces of infected animals such as humans and could also be used to combat these pathogens on instruments and surfaces that need to be treated. Two types of biofilm assays were performed: a sustained inhibition assay and a disruption assay. The sustained inhibition assay assessed the compound's ability to prevent biofilm development throughout all stages of biofilm formation, while the disruption assay assessed the compound's ability to break up an existing mature biofilm. For fungal biofilm assays, all solutions were prepared in RPMI 1640 medium. All bacterial biofilm solutions were prepared in Tryptic Soy Broth (TSB), supplemented with 1% glucose (henceforth referred to as TSB-G). All subsequent procedures were performed in a manner that maintained sterility. […] Amino acids were also tested in combinations. Compound solutions were homogenized with gentle agitation in the dark (4° C., 24 hours) before use. Fungal strains were streaked on Yeast Peptone Dextrose (YPD) agar plates and incubated at 30° C. for 48 hours. A single colony from each strain to be tested was inoculated into YPD broth and grown for 12 hours, at 30° C., shaking at 225 rpm. For the fungal biofilm inhibition assay, 1 μl of saturated overnight cell culture was added to either 80 μL of RPMI-1640 or RPMI-1640 supplemented with the amino acid compound solution to be tested, in a 384-well plate. The cells were allowed to adhere to the plate for 90 minutes at 37° C. shaking at 350 rpm. Loosely bound cells were washed once with phosphate buffered saline (PBS) and 80 μl of RPMI-1640, or RPMI-1640 supplemented with the amino acid compound solution was added to the plate. The plate was further incubated for 24 hours at 37° C. shaking at 350 rpm. Media was carefully aspirated and the biofilm was measured by optical density at 600 nm. Twelve replicates were performed for each tested condition and the reported values are normalized to the control (RPMI-1640 media only). For the fungal biofilm disruption assays, 80 μL of RPMI-1640 was added to the plate, along with 1 μL of overnight cell culture. The cells were allowed to adhere to the plate for 90 minutes at 37° C. shaking at 350 rpm. Loosely bound cells were washed once with PBS and 80 μL of RPMI-1640 was added to the plate. The plate was further incubated for 24 hours at 37° C. shaking at 350 rpm. Media was carefully aspirated from the mature biofilm and 80 μL of RPMI-1640, or RPMI-1640 supplemented with the amino acid compound solution to be tested, was gently added to the plate. The plate was further incubated for 24 hours at 37° C. shaking at 350 rpm. Media was carefully aspirated and the biofilm was measured by optical density at 600 nm. Twelve replicates were performed for each tested condition and the reported values are normalized to the control (RPMI-1640 media only).

N[C@@H](CC(=O)O)C(=O)O [Aspartic Acid, L-aspartic acid]
Reduce F Biofilm (C. albicans biofilms): ●● (two dots [i.e. ●●] signifies major effect (greater than about 30% change)) | effect on C. albicans biofilms in inhibition and disruption assays [1]: both inhibited and disrupted

N[C@@H](CS)C(=O)O [Cysteine, L-cysteine]
Reduce F Biofilm (C. albicans biofilms): ●● (two dots [i.e. ●●] signifies major effect (greater than about 30% change)) | effect on C. albicans biofilms in inhibition and disruption assays [1]: both inhibited and disrupted

N[C@@H](CCC(=O)O)C(=O)O [Glutamic Acid, L-glutamic acid]
Reduce F Biofilm (C. albicans biofilms): ●● (two dots [i.e. ●●] signifies major effect (greater than about 30% change)) | effect on C. albicans biofilms in inhibition and disruption assays [1]: both inhibited and disrupted
